Assay results as given in patent publication US20030225044A1, “Method to increase serum levels of vitamins in animals including humans” (priority 2002, published 2003).

Assays:
Assay type in all cases: in vivo, beef steers
[1] = Serum 25-Hydroxy-Vitamin D3 after intranasal or transdermal administration (Example II); details: for fold increase in the 25-Hydroxy-Vitamin D3 serum level / percent increase in the 25-Hydroxy-Vitamin D3 serum level: nasal delivery
Method: These five treatments were:
Treatments were applied and cattle were bled via jugular venipuncture at 0, 6, and 24 hours post-dosing.

[2] = Dose/response of nasal administration, serum 25-Hydroxy-Vitamin D3 (Example III); details: intranasal
Method: To study the dose/response efficacy of nasal administration of Vitamin D, twelve (12) beef steers of mixed breeding were used to evaluate four treatments (3 replications). These four treatments were:
(§1) Treatments were applied and cattle were bled via jugular venipuncture at 0 and 6 hours post-dosing.

[3] = Buccal versus nasal administration, serum 25-Hydroxy-Vitamin D3 (Example IV); details: for serum level change for each milligram administered: after 6 hours (FIG. 7)
Method: To study the dose/response efficacy of buccal administration of one or more vitamins, beef steers of mixed breeding were used to evaluate three treatments (3 replications). These three treatments were:
as §1

[4] = Serum 25-Hydroxy-Vitamin D3 after intravenous infusion (Example I); details: 125 mg intravenous infusion
Method: Applicants infused three (3) beef steers of mixed breeding with 125 milligrams of 25-Hydroxy-Vitamin D3 intravenously. Blood was drawn just prior to the intravenous infusion and at 6 hours and 24 hours post administration.
Point 120, representing 116 nanomoles per liter, comprises the serum level of 25-Hydroxy-Vitamin D3 just prior to the intravenous infusion. At 6 hours post administration, the serum blood level was measured as 2432 nanomoles per liter, i.e. point 130. […] At 24 hours post administration, the serum blood level was measured as 1011 nanomoles per liter, i.e. point 140.

[5] = Treatment 2: 125 mg 25-OH D3, ethanol, intranasal, 6 Hours
[6] = Treatment 2: 125 mg 25-OH D3, ethanol, intranasal, 24 Hours
[7] = Treatment 2: 125 mg 25-OH D3, ethanol, intranasal, time 0
[8] = Treatment 2: 125 mg in ethanol, 6 hours post administration (FIG. 2, point 212)
[9] = Treatment 2: 125 mg in ethanol, 24 hours post administration (FIG. 2, point 214)
[10] = Treatment 3: 125 mg 25-OH D3, powder, intranasal, 6 Hours
[11] = Treatment 3: 125 mg 25-OH D3, powder, intranasal, 24 Hours
[12] = Treatment 3: 125 mg 25-OH D3, powder, intranasal, time 0
[13] = Treatment 4: 125 mg 25-OH D3, corn oil, intranasal, 6 Hours
[14] = Treatment 4: 125 mg 25-OH D3, corn oil, intranasal, 24 Hours
[15] = Treatment 4: 125 mg 25-OH D3, corn oil, intranasal, time 0
[16] = Treatment 5: 125 mg 25-OH D3, transdermal (inner ear), 6 Hours
[17] = Treatment 5: 125 mg 25-OH D3, transdermal (inner ear), 24 Hours
[18] = Treatment 5: 125 mg 25-OH D3, transdermal (inner ear), time 0

C=C1CC[C@H](O)C/C1=C/C=C1\CCC[C@]2(C)[C@@H]([C@H](C)CCCC(C)(C)O)CC[C@@H]12 [25-Hydroxy-Vitamin D3]
Average Serum Levels-25-Hydroxy-Vitamin D3 [1, 5]: 226 nmol/L
Multiple change from time 0 of serum 25-Hydroxy-Vitamin D3 [1, 5]: 3.0
Average Serum Levels-25-Hydroxy-Vitamin D3 [1, 6]: 354 nmol/L
Multiple change from time 0 of serum 25-Hydroxy-Vitamin D3 [1, 6]: 4.7
Average Serum Levels-25-Hydroxy-Vitamin D3 [1, 7]: 75 nmol/L
Multiple change from time 0 of serum 25-Hydroxy-Vitamin D3 [1, 7]: 0
course of serum level of 25-Hydroxy-Vitamin D3 ([1]; Treatment 2: 125 mg in ethanol, nasal delivery (FIG. 2, curve 210)): increases throughout the time period from 0 hours to 24 hours post administration
fold increase in the 25-Hydroxy-Vitamin D3 serum level [1, 8]: more than a three fold increases
percent increase in the 25-Hydroxy-Vitamin D3 serum level [1, 8]: ~200%
fold increase in the 25-Hydroxy-Vitamin D3 serum level [1, 9]: greater than 4.7 fold
percent increase in the 25-Hydroxy-Vitamin D3 serum level [1, 9]: ~375%
Average Serum Levels-25-Hydroxy-Vitamin D3 [1, 10]: 104 nmol/L
Multiple change from time 0 of serum 25-Hydroxy-Vitamin D3 [1, 10]: 1.2
Average Serum Levels-25-Hydroxy-Vitamin D3 [1, 11]: 156 nmol/L
Multiple change from time 0 of serum 25-Hydroxy-Vitamin D3 [1, 11]: 1.9
Average Serum Levels-25-Hydroxy-Vitamin D3 [1, 12]: 83 nmol/L
Multiple change from time 0 of serum 25-Hydroxy-Vitamin D3 [1, 12]: 0
course of serum level of 25-Hydroxy-Vitamin D3 ([1]; Treatment 3: 125 mg powder, nasal delivery (FIG. 2, curve 220)): increases throughout the time period from 0 hours to 24 hours post administration
Average Serum Levels-25-Hydroxy-Vitamin D3 [1, 13]: 95 nmol/L
Multiple change from time 0 of serum 25-Hydroxy-Vitamin D3 [1, 13]: 1.0
Average Serum Levels-25-Hydroxy-Vitamin D3 [1, 14]: 179 nmol/L
Multiple change from time 0 of serum 25-Hydroxy-Vitamin D3 [1, 14]: 1.9
Average Serum Levels-25-Hydroxy-Vitamin D3 [1, 15]: 94 nmol/L
Multiple change from time 0 of serum 25-Hydroxy-Vitamin D3 [1, 15]: 0
course of serum level of 25-Hydroxy-Vitamin D3 ([1]; Treatment 4: 125 mg in corn oil, nasal delivery (FIG. 2, curve 230)): increases throughout the time period from 6 hours to 24 hours post administration
Average Serum Levels-25-Hydroxy-Vitamin D3 [1, 16]: 81 nmol/L
Multiple change from time 0 of serum 25-Hydroxy-Vitamin D3 [1, 16]: 1.1
Average Serum Levels-25-Hydroxy-Vitamin D3 [1, 17]: 96 nmol/L
Multiple change from time 0 of serum 25-Hydroxy-Vitamin D3 [1, 17]: 1.3
Average Serum Levels-25-Hydroxy-Vitamin D3 [1, 18]: 74 nmol/L
Multiple change from time 0 of serum 25-Hydroxy-Vitamin D3 [1, 18]: 0
Average Serum Levels-25-Hydroxy-Vitamin D3 ([2]; Treatment 2: 30 mg 25-OH D3 in 1 ml ethanol, 6 Hours): 149.67 nmoI/L
Average Serum Levels-25-Hydroxy-Vitamin D3 ([2]; Treatment 2: 30 mg 25-OH D3 in 1 ml ethanol, time 0): 121.33 nmoI/L
change in serum level per milligram administered, compared among dosages ([2]; Treatment 2: 30 mg in 1 ml ethanol, 6 hours, versus 60, 90, 120 mg (FIG. 5)): maximum change in serum level per milligram administered
Average Serum Levels-25-Hydroxy-Vitamin D3 ([2]; Treatment 3: 60 mg 25-OH D3 in 1 ml ethanol, 6 Hours): 184.33 nmoI/L
Average Serum Levels-25-Hydroxy-Vitamin D3 ([2]; Treatment 3: 60 mg 25-OH D3 in 1 ml ethanol, time 0): 144.67 nmoI/L
Average Serum Levels-25-Hydroxy-Vitamin D3 ([2]; Treatment 4: 90 mg 25-OH D3 in 1 ml ethanol, 6 Hours): 180.67 nmoI/L
Average Serum Levels-25-Hydroxy-Vitamin D3 ([2]; Treatment 4: 90 mg 25-OH D3 in 1 ml ethanol, time 0): 131.33 nmoI/L
Average Serum Levels-25-Hydroxy-Vitamin D3 ([2]; Treatment 5: 120 mg 25-OH D3 in 1 ml ethanol, 6 Hours): 191.67 nmoI/L
Average Serum Levels-25-Hydroxy-Vitamin D3 ([2]; Treatment 5: 120 mg 25-OH D3 in 1 ml ethanol, time 0): 122.33 nmoI/L
serum level change for each milligram administered ([3]; Buccal administration (Treatment 3, 120 mg in 1 ml ethanol)): about 0.63 nmol/L for each milligram administered
serum level change for each milligram administered ([3]; Nasal administration (Treatment 2, 120 mg in 1 ml ethanol)): about 0.57 nmol/L for each milligram administered
Average Serum Levels-25-Hydroxy-Vitamin D3 ([3]; Treatment 2: 120 mg 25-OH D3 in 1 ml ethanol, intranasal, 6 Hours): 191.67 nmol/L
Average Serum Levels-25-Hydroxy-Vitamin D3 ([3]; Treatment 2: 120 mg 25-OH D3 in 1 ml ethanol, intranasal, time 0): 122.33 nmol/L
effectiveness of buccal administration compared with nasal administration ([3]; Treatment 3, buccal, in ethanol, versus Treatment 2, nasal, 0 to 6 hours (FIG. 6, curves 610 and 620)): comparatively as effective as nasal administration
Average Serum Levels-25-Hydroxy-Vitamin D3 ([3]; Treatment 3: 120 mg 25-OH D3 in 1 ml ethanol, buccal, 6 Hours): 158.00 nmol/L
Average Serum Levels-25-Hydroxy-Vitamin D3 ([3]; Treatment 3: 120 mg 25-OH D3 in 1 ml ethanol, buccal, time 0): 82.00 nmol/L
course of serum level of 25-Hydroxy-Vitamin D3 ([4]; 0 to 6 hours (FIG. 1, curve portion 112)): increases from 0 hours to 6 hours post administration
course of serum level of 25-Hydroxy-Vitamin D3 ([4]; 6 to 24 hours (FIG. 1, curve portion 114)): decreases from 6 hours to 24 hours post administration
serum level of 25-Hydroxy-Vitamin D3 ([4]; 6 hours post administration): 2432 nanomoles per liter
serum level of 25-Hydroxy-Vitamin D3 ([4]; 24 hours post administration): 1011 nanomoles per liter
serum level of 25-Hydroxy-Vitamin D3 ([4]; just prior to infusion): 116 nanomoles per liter
